Test results taken from ChEMBL document CHEMBL1201862, “PubChem BioAssay data set” (2004).
Activity calls are given as the source filed them.

Assays:
[1] = Luminescence Cell-Based Dose Confirmation HTS to Identify Inhibitors of Platelet Dense Granule Release. [Related pubchem assays: 1663 (Primary HTS), 1678 (Summary of Project)]; assay type: functional
[2] = biological target: Luciferin 4-monooxygenase (Photinus pyralis, UniProt P08659); assay: firefly luciferase enzyme inhibitors, dose response, biochemical, luminescence (AID 1891)
Luciferin 4-monooxygenase, sequence (P08659 whole entry): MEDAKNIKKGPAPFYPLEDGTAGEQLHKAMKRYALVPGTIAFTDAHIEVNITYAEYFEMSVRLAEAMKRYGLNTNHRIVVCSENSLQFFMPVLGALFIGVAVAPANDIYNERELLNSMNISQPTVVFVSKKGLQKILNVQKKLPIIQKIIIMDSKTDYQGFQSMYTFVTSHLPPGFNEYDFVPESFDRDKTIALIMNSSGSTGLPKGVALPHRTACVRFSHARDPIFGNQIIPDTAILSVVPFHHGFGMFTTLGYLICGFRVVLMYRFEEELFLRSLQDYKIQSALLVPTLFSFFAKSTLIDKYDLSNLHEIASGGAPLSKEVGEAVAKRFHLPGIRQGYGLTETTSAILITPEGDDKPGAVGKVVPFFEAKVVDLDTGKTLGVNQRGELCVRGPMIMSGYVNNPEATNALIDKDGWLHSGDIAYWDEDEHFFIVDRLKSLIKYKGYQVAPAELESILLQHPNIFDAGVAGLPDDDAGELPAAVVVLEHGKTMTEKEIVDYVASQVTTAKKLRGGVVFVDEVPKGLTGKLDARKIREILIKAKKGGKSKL

cells [3] = assay type: functional, cell-based
cells [4] = assay type: functional, cell-based; remark: listed apart in the source
Cytochrome P450 2C19 = Cytochrome P450 2C19 (Homo sapiens, UniProt P33261); assay: Cytochrome panel assay with activity outcomes. Panel member name: p450-cyp2c19 Compounds with AC50 equal or less than 10 uM are considered active; assay type: functional; conditions: read-out: AC50
Cytochrome P450 2C19, sequence (P33261 whole entry): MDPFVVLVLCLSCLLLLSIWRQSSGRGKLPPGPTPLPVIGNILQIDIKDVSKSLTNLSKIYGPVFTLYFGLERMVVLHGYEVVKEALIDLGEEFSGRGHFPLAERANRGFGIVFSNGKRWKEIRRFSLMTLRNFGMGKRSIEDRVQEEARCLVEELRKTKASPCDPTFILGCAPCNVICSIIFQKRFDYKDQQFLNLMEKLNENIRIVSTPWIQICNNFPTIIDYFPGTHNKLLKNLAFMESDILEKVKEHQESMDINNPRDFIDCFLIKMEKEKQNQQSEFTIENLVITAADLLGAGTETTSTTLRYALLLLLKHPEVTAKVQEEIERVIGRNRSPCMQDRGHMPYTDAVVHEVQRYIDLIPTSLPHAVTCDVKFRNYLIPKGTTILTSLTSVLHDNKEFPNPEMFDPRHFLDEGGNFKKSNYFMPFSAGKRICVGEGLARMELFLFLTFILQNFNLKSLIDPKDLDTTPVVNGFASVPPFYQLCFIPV

Cytochrome P450 2C9 = Cytochrome P450 2C9 (Homo sapiens, UniProt P11712)
Cytochrome P450 2C9, sequence (P11712 whole entry): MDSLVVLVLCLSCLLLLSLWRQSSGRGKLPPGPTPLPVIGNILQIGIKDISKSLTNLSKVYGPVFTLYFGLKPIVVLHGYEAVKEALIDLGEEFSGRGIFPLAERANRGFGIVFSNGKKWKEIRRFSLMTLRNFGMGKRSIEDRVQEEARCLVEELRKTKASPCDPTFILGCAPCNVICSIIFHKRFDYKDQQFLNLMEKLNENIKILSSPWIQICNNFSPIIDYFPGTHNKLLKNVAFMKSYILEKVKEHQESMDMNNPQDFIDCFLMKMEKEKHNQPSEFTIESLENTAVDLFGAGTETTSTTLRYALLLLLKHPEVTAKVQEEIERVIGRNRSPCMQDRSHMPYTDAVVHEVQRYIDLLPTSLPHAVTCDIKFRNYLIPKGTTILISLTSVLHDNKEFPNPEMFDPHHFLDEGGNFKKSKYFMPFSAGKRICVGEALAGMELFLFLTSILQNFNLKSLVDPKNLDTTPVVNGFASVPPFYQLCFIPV

Cytochrome P450 1A2 = biological target: T1, Cytochrome P450 1A2 (Homo sapiens, UniProt P05177);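 also: PubChem cytochrome P450 panel assay, CYP1A2 panel member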
T1 sequence (P05177 whole entry): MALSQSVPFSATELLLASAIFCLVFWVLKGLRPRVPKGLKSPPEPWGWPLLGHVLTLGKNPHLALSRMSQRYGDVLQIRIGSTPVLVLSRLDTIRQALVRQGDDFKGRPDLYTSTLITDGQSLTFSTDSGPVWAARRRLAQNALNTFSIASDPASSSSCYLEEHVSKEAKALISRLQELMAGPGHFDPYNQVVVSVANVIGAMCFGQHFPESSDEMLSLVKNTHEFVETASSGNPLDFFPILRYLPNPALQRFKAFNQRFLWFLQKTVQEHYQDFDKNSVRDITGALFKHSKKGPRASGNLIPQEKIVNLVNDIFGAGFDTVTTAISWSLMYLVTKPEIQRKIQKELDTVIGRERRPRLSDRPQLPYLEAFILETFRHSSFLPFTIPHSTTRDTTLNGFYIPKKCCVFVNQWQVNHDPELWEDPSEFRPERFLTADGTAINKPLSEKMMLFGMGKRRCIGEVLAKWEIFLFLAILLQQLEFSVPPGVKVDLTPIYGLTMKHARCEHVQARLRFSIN

[5] = biological target: T2, Corticotropin-releasing factor receptor 2/Corticotropin-releasing factor-binding protein (Homo sapiens, UniProt P24387+Q13324); assay: activators of CRF receptor 2 with binding protein – uHTS hits, confirmation (AID 602473); assay type: functional; conditions: read-out: EC50_Mean
T2 sequence (Q13324 whole entry): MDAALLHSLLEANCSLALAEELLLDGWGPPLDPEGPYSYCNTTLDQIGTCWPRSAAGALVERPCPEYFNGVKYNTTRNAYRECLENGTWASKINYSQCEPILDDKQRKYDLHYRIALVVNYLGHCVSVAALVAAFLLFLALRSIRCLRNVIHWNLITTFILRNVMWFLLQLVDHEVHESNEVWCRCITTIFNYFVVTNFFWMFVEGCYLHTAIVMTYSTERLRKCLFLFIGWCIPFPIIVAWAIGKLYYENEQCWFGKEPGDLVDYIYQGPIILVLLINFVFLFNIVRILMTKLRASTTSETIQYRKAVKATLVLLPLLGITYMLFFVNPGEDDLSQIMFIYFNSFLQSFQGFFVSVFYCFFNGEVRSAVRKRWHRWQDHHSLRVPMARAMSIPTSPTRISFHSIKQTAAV
T2 sequence (P24387 whole entry): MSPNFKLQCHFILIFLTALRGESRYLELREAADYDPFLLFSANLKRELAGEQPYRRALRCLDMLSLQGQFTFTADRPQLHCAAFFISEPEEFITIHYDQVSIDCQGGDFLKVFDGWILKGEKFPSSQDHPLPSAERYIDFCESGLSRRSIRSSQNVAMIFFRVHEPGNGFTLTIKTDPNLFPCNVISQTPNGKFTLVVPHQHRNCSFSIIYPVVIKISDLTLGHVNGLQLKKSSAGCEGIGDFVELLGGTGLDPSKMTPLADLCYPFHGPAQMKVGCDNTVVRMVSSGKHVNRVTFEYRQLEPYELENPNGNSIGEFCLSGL

[6] = biological target: T3, Rac GTPase-activating protein 1 (Homo sapiens, UniProt Q9H0H5); assay: MgcRacGAP GTPase-activating activity inhibitors, confirmation, biochemical, ADP Hunter fluorescence, primary and confirmatory (AID 624330); assay type: functional
T3 sequence (Q9H0H5 whole entry): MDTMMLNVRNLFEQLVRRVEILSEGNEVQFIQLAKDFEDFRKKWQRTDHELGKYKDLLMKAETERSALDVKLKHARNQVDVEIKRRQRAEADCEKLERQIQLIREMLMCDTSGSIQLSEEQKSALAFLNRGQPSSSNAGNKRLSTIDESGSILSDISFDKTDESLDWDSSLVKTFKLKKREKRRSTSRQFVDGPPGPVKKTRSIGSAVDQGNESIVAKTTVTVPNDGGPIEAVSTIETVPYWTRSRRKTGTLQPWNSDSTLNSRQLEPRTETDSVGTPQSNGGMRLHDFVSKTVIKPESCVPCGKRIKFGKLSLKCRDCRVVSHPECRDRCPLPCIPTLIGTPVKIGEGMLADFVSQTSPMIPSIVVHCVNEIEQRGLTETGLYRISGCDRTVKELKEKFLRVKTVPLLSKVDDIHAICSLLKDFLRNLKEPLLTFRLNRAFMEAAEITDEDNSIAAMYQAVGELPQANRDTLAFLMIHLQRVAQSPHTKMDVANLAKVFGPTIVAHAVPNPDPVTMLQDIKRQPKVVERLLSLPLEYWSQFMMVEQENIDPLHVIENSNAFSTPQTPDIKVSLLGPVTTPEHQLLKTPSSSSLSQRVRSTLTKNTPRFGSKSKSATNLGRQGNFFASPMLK

Cytochrome P450 2D6 = Cytochrome P450 2D6 (Homo sapiens, UniProt P10635);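 also: CYP2D6 member of a cytochrome P450 panel assay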
Cytochrome P450 2D6, sequence (P10635 whole entry): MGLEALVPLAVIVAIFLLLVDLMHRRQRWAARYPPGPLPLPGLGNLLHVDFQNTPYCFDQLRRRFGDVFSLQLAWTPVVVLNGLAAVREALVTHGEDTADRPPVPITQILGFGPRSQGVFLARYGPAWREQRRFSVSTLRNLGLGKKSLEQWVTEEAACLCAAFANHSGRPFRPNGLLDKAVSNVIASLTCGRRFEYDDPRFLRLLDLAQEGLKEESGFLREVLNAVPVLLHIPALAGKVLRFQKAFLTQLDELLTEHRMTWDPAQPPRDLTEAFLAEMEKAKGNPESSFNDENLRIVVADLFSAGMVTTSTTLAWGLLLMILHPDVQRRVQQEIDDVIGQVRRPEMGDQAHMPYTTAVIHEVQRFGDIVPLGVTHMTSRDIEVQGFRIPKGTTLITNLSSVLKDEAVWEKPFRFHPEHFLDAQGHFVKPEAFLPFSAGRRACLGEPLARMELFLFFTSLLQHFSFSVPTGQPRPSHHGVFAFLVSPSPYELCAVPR

Cytochrome P450 3A4 = Cytochrome P450 3A4 (Homo sapiens, UniProt P08684);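 also: CYP3A4 tested as one member of a cytochrome P450 panel screen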
Cytochrome P450 3A4, sequence (P08684 whole entry): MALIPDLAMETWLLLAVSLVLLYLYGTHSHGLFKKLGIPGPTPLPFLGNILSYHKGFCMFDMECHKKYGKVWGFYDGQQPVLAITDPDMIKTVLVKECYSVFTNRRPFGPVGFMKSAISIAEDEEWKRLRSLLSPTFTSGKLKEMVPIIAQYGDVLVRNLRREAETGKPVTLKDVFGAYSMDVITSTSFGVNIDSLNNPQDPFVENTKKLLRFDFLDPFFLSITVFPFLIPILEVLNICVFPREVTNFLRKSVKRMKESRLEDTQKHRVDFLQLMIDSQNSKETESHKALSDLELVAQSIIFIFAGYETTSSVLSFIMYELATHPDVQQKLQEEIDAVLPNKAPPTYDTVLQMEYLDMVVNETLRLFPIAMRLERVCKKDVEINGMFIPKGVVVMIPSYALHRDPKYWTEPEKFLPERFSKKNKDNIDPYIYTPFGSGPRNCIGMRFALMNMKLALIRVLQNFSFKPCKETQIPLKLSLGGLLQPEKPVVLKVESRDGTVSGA

[7] = Luminescence Cell-Based Dose Confirmation HTS to Identify Activators of 5'UTR Stem-Loop Driven Alpha-Synuclein mRNA Translation in H4 Neuroglioblastoma Cells. [Related pubchem assays: 1829 (Project Summary), 1814 (Primary HTS)]; assay type: functional
[8] = Luminescence Cell-Based Dose Response HTS to Identify Activators of Luciferase Translation or Activity in H4 […] Cells. [Related pubchem assays: 1829 (Project Summary), 1814 (Primary HTS)]; assay type: functional
H4 = assay: Luminescence Cell-Based Dose Response HTS to Identify Activators of 5'UTR Stem-Loop Driven Prion Protein mRNA Translation in H4 Neuroglioblastoma Cells. [Related pubchem assays: 1829 (Project Summary), 1814 (Primary HTS)]; assay type: functional; conditions: Homo sapiens
[9] = Luminescence Cell-Based Dose Retest to Confirm Inhibitors of Cancer Stem Cells. [Related pubchem assays (depositor defined):AID2717, AID2721]; assay type: functional, Homo sapiens; conditions: Homo sapiens
INS1 = assay: beta cell apoptosis inhibitors, cytokine rescue, dose response, luminescence, retest (AID 449756); assay type: functional, cell-based; conditions: Rattus norvegicus;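 also: cell death triggered by IL-1 beta plus TNF-alpha plus IFN-gamma mixture; protective hits raise ATP signal compared with cytokine alone wells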
[10] = system: Streptococcus sp. 'group A'; assay: growth inhibition of control SK(-) GAS strain, dose response, counter-screen for streptokinase expression inhibitor project, luminescence, kanamycin, BacTiterGlo, confirmation (AID 1900); assay type: functional, organism-based; conditions: Streptococcus sp. 'group A'
Streptokinase A = biological target: T4, Streptokinase A (Streptococcus pyogenes serotype M1, UniProt P10520); assay: S. pyogenes streptokinase expression inhibitors, potency, dose response, plasminogen activation absorbance, OD405 (AID 1914); assay type: functional, Streptococcus pyogenes M1 GAS;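 also: secreted streptokinase activity via plasminogen activation per viability signal from cell pellet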
T4 sequence (P10520 whole entry): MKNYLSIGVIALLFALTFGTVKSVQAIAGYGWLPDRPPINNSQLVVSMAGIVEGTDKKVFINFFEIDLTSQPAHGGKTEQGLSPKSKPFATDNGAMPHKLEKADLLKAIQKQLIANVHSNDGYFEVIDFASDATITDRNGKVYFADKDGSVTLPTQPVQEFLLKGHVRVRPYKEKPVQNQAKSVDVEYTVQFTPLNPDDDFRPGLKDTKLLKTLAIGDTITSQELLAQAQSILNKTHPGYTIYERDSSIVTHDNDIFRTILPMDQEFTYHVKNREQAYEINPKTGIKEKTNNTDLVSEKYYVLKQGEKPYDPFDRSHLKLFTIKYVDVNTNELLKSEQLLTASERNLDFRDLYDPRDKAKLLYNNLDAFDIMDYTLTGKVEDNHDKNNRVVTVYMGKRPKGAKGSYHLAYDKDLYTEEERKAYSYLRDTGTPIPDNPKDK

Streptococcus = assay: Group A Streptococcus viability loss, dose response, counter-screen for streptokinase expression inhibitor project, luminescence, BacTiterGlo (AID 1915); assay type: functional, organism-based; conditions: Streptococcus;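 also: potency for reduction of bacterial viability or growth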

## COC(=O)Cn1/c(=N/C(=O)CSC(C)=O)sc2ccccc21
[1]
  EC50: > 112 µM (not active)
[2]
  EC50: > 112 µM (not active)

## COc1ccccc1OCc1nnc(SCC(=O)NCc2ccco2)n1-c1ccccc1
Cells [3]
  EC50: > 350 µM (not active)
Cells [4]
  EC50: > 350 µM (not active)

## c1cncc(-c2nnc3n2C2(CCCCC2)Cc2ccccc2-3)c1
Cytochrome P450 2C19
  AC50: 44.7 µM (inconclusive)
Cytochrome P450 2C9
  AC50: 31.6 µM (inconclusive)
Cytochrome P450 1A2
  AC50: 39.8 µM (inconclusive)

## O=[N+]([O-])c1ccc(/N=C/c2ccc(Br)c([N+](=O)[O-])c2)cc1
Cells [3]
  EC50: > 350 µM (not active)
Cells [4]
  EC50: > 350 µM (not active)

## CCCC(=O)C1=C(N2CCCCC2)CC(C)(C)C(C(=O)OC)C1=O (centres undefined)
[1]
  EC50: > 112 µM (not active)
[2]
  EC50: > 112 µM (not active)

## Cc1ccc2nc3c(O)n(CC(=O)NCCCN(C)Cc4ccccc4)ncc-3c2c1
Cells [3]
  EC50: > 350 µM (not active)
Cells [4]
  EC50: > 350 µM (not active)

## C=CCOc1ccc(/C=C2\SC(N)=NC2=O)cc1OC
Cells [3]
  EC50: > 350 µM (not active)
Cells [4]
  EC50: > 350 µM (not active)

## Cc1ccc2cccc(S(=O)(=O)N3CCCc4ccccc43)c2n1
[5]
  EC50: 11.9 µM (active)
[1]
  EC50: 15.8 µM (active)
[2]
  EC50: 34 µM (active)

## C=CCN1C(=O)/C(=C2/Sc3ccccc3N2C)S/C1=N\c1c(C)n[nH]c1C
[1]
  EC50: 17.5 µM (active)
[2]
  EC50: > 112 µM (not active)

## NC(CCCCc1ccccc1)c1cccc2ccccc12 (centres undefined)
[1]
  EC50: 24.6 µM (active)
[2]
  EC50: > 112 µM (not active)

## Cc1c(NC(=O)CN2CC(C)OC(C)C2)c(=O)n(-c2ccccc2)n1C (centres undefined)
[6]
  IC50: 83.1 µM (active)

## COc1ccc(-c2noc(CCCC(=O)NCCc3ccccc3)n2)cc1OC
Cytochrome P450 2C9
  AC50: 4.47 µM (inconclusive)
Cytochrome P450 2D6
  AC50: 22.4 µM (inconclusive)
Cytochrome P450 1A2
  AC50: 15.8 µM (inconclusive)

## Cc1ccc2c(c1)NCC(C(=O)NC1CCCCC1)O2 (centres undefined)
Cytochrome P450 2C9
  AC50: 39.8 µM (inconclusive)
Cytochrome P450 1A2
  AC50: 11.2 µM (inconclusive)
Cytochrome P450 3A4
  AC50: 31.6 µM (inconclusive)

## Cn1c(CCNC(=O)c2ccco2)nc2cc(NC(=O)C3CCCCC3)ccc21
Cells [3]
  EC50: 97.8 µM (active)
Cells [4]
  EC50: > 350 µM (not active)

## CCC1(c2ccccc2)NC(=O)N(CC(=O)Nc2ccc(N3CCCC3)cc2C)C1=O (centres undefined)
[6]
  IC50: 112 µM (active)

## CCOC(=O)C1CCCN(C(=O)c2ccc3oc(Cc4ccccc4)nc3c2)C1 (centres undefined)
[7]
  EC50: 13.9 µM (active)
[8]
  EC50: 16.2 µM (active)
[1]
  EC50: > 112 µM (not active)
H4
  EC50: 36.4 µM (active)
[2]
  EC50: > 112 µM (not active)

## CC(=O)Nc1ccc(CN2CCCC(CO)(Cc3cccc(Cl)c3)C2)cc1 (centres undefined)
[5]
  EC50: > 53 µM (inactive)

## Cc1ccc(OCCCN2CCCC2)c(C)c1
[6]
  IC50: 105 µM (active)

## COc1ccc(S(=O)(=O)N(Cc2cccnc2)Cc2cc3ccccc3nc2O)cc1
[1]
  EC50: > 112 µM (not active)
[2]
  EC50: > 112 µM (not active)

## CC(C)COc1ccc(N)cc1OCC(C)C
[6]
  IC50: 55.3 µM (active)

## CC(=O)c1cc(NC(=O)c2ccc(C)cc2)c(=O)oc1/C=C/N(C)C
[5]
  EC50: 6.73 µM (active)

## C=CCc1cccc(/C=N/NC(=O)c2ccc3[nH]cnc3c2)c1O
[9]
  AC50: 3.81 µM (active)
Cells [3]
  EC50: 44.5 µM (active)
Cells [4]
  EC50: 11.8 µM (active)
INS1
  AC50: 1.61 µM (active)

## Cc1nc2c(ccc3nc(NC(=O)c4ccc(S(=O)(=O)N(C)C)cc4)sc32)s1
Cytochrome P450 2C19
  AC50: 7.94 µM (inconclusive)
Cytochrome P450 2C9
  AC50: 0.794 µM (inconclusive)
Cytochrome P450 1A2
  AC50: 3.16 µM (inconclusive)
Cytochrome P450 3A4
  AC50: 3.55 µM (inconclusive)

## COc1ncnc2sc(-c3ccccc3)cc12
[1]
  EC50: 6.33 µM (active)
[2]
  EC50: 2.4 µM (active)

## O=C(C1CCCN(Cc2cccnc2)C1)N1CCCCC1 (centres undefined)
[6]
  IC50: 74 µM (active)

## O=C(/C=C/c1cn(-c2ccccc2)nc1-c1ccccc1)Nc1ccc(C(=O)O)cc1
[10]
  EC50: 6.15 µM (active)
Streptokinase A
  EC50: > 150 µM (not active)
Streptococcus
  EC50: 15.5 µM (active)
Cells [3]
  EC50: 24.8 µM (active)
Cells [4]
  EC50: > 350 µM (not active)

## O=C(NC(=S)Nc1cccc2c(O)cccc12)c1ccco1
[6]
  IC50: 32.3 µM (active)

## CN(C)S(=O)(=O)c1ccc(Cl)c(NC(=O)COc2ccccc2[N+](=O)[O-])c1
[1]
  EC50: > 112 µM (not active)
[2]
  EC50: > 112 µM (not active)

## CC1(C)C[C@H](O)[C@@]23C[C@@H](OC2=O)[C@]2(C)C(=CCC4[C@@]5(C)CC[C@H](O)C(C)(C)C5CC[C@]42C)[C@@H]3C1 (some centres undefined)
[5]
  EC50: 5.32 µM (active)

## O=C(c1cc(C2CC2)nn1-c1ccccc1)N1CCN(c2ccc(O)cc2)CC1
[6]
  IC50: 37.9 µM (active)
